Measured values reported in US10538738B2, “Megakaryocytic particles and microparticles for cell therapy and fate modification of stem and progenitor cells” (priority 2014, dated 2020).
Residues, ends and D or L forms follow the SMILES beside them. *: point of attachment. Cbz = O=C(OCc1ccccc1)*; CH2F = FC*

How the values were obtained:
Mks [1] = experiment: Shear-flow PPT and PLP generation from Mks treated with caspase inhibitors; format: cell-based, human; conditions: 10 μM inhibitor, shear flow 2.5 dyn/cm^2 for 0.5 hour
Procedure: (§1) Rectangular flow slides (μ-Slide 1^0.6 Luer, ibidi USA) were coated with 50 μg/mL vWF, and ca. 300,000 cultured Mks were seeded into each slide. Mks on slides were cultured overnight (21 hours) before being exposed to shear flow. Medium (IMDM supplemented with 10% BIT9500, 50 ng/mL TPO, 50 ng/mL rhSCF, 0.5 μg/mL hLDL and 6.25 mM nicotinamide) was perfused over Mks on slides by two syringe pumps (Dual NE-4000 pump; New Era Pump Systems) to achieve the desirable shear-stress level. For BrdU incorporation assays, the medium was supplemented with 10 μM BrdU (BD). During shear flow, some Mks were detached from the slide surface and released into the circulating medium. These are considered as non-adherent Mks. Adherent Mks were harvested for analysis using non-enzymatic cell dissociation buffer (Sigma-Aldrich). In some experiments, adherent Mks were fixed with 2% paraformaldehyde directly on slides and processed for immunofluorescence analysis. In some experiments, Mks were treated with caspase inhibitors, 10 μM z-VAD.fmk (Bachem) or 10 μM z-DEVD.fmk (Bachem) starting on d9. Inhibitor-treated Mks were seeded into flow slides at d9 or d11, were exposed to shear flow (2.5 dyn/cm^2 for 0.5 hour) in medium supplemented with the same inhibitor, and were harvested for PPT, PLP and CD41^+ microparticle counting.
Large cells were excluded from PLP preparations by centrifugation at 150× g for 10 minutes. PLPs were then pelleted by centrifugation at 1000× g for 10 minutes from the PLP-enriched supernatant. After one wash, PLPs were resuspended in Tyrode's buffer and used in platelet-stimulation assays. The number of PLPs and PPTs per slide was measured using a Multisizer™ 3 Coulter Counter (Beckman Coulter).
It has been shown that activation of caspase-3 and 9 is required for PPT formation. Here we wanted to investigate if shear stress affects caspase-3 activation in Mks. We chose caspase-3 as a marker of late apoptosis to complement our Annexin V studies above, which pertain to early apoptotic events. First, we confirmed that caspase-3 in indeed activated during in vitro Mk maturation with our culture protocol. […] We also observed a correlation between the activation level of caspase-3 in Mks (represented as the ratio of MFI of active caspase-3 over isotype control) and PPT formation (FIG. 4C), which is consistent with previous studies discussed above. […] Exposure of Mks for 2 hours to 1 dyn/cm^2 enhanced caspase-3 activation both at d10 and d12 (FIG. 4D) by 1.7 to 5.6 fold depending on the donor and day. Since, as discussed, caspase-3 activation is necessary for PPT formation, one mechanism by which shear stress may promote PPT formation (see below) is by enhancing caspase-3 activation. To investigate this hypothesis, Mks were treated with 10 μM z-VAD.fmk (pan-caspase inhibitor) or z-DEVD.fmk (caspase-3 inhibitor) and were then exposed to shear flow. After flow application, PLPs (d=1-3 μm) and PPTs (d=3-10 μm) were harvested and counted. The effect of shear stress on particle generation was assessed using the ratio of PLP or PPT number from one slide of Mks under flow conditions over that under static conditions. […] However, at d12, both of z-VAD fmk and z-DEVD.fmk decreased both the PPT and PLP ratios (FIGS. 4E and 4F). […] At d12 when Mks produced more PPTs and stared to form a significant number of PLPs, the effect of shear on PPT and PLP generation was attenuated by caspase inhibitors.

Mks [2] = experiment: Shear-enhanced MkMP generation from Mks treated with caspase inhibitors; format: cell-based, human; conditions: d10 and d12 Mks, 10 μM inhibitor, shear flow 2.5 dyn/cm^2 for 0.5 hour
Procedure: as §1, with “Inhibitor-treated Mks were seeded into flow slides at d9 or d11, were exposed to shear flow (2.5 dyn/cm^2 for 0.5 hour) in medium supplemented with the same inhibitor, and were harvested for PPT, PLP and CD41^+ microparticle counting.” left out
For both static cultures and cultures exposed to shear flow, Mk cells were removed from the culture medium by centrifugation (150× g for 10 minutes). […] Concentrations of MkMPs (and of PMPs and Mks) were measured by flow cytometry using 1.34 μm microbeads (Sphero Tech) as standard. […]

PLP ratio (PLP number under flow conditions over static conditions) (Mks [1]; d10 Mks) | PPT ratio (PPT number under flow conditions over static conditions) (Mks [1]; d10 Mks) | PLP ratio (PLP number under flow conditions over static conditions) (Mks [1]; d12 Mks) | PPT ratio (PPT number under flow conditions over static conditions) (Mks [1]; d12 Mks) | Compound | Ratio of number of MkMPs under shear flow over static conditions (Mks [2])
no statistically significant effect | no statistically significant effect | decreased | decreased | COC(=O)C[C@H](NC(=O)[C@H](C)NC(=O)[C@@H](NC(=O)OCc1ccccc1)C(C)C)C(=O)CF [z-VAD.fmk] (Cbz-Val-Ala-Asp(OMe)-CH2F) | only treatment with caspase-3 inhibitor (z-DEVD fmk) attenuated the effect of shear stress
decreased only the PPT ratio | decreased | decreased | decreased | COC(=O)CC[C@H](NC(=O)[C@H](CC(=O)OC)NC(=O)OCc1ccccc1)C(=O)N[C@H](C(=O)N[C@@H](CC(=O)OC)C(=O)CF)C(C)C [z-DEVD.fmk] | attenuated the effect of shear stress
